From US20190008837A1, “OPHTHALMIC COMPOSITIONS AND ASSOCIATED METHODS” (University of Utah Research Foundation, priority 2016, published 2019)

Test system: cornea neuron fibers of scratched corneas
Experiment: Cornea scratch model, cornea neuron regeneration on flatmounts (Example 1)
Assay type: in vivo, mice
Details: eye drops 3 times per day for 5 days, corneas harvested on the 7th day, beta III tubulin staining
Procedure: Nine mice were divided into three treatment groups having three mice each. The corneas of each of the mice in each of the groups were scratched. The control group was administered a standard blank (e.g. pacebo) composition. The first treatment group received pergolide. The second treatment group received cabergoline. Each of the eye drops was applied 3 times per day for 5 days. The corneas were harvested on the 7th day. The corneas were then fixed in acetone for 1 hour at room temperature and then blocked in 3% BSA for 1 hour. The cornea flatmounts were stained with primary antibody, anti-beta III tubulin antibody (rabbit polyclonal, ab18207) at 1:200 in 3% BSA blocking buffer overnight at 4° C. After washing 3 times for 10 minutes, each of the cornea flatmounts were incubated with secondary antibody (goat anti rabbit, Invitrogen Alexa Fluor 555) at 1:200 in 3% BSA for 1 hour at room temperature. The flatmounts were again washed 3 times for 10 minutes each. Images of the cornea neuron fibers were taken and analyzed under EVOS microscopy.

C=CCN1C[C@H](C(=O)N(CCCN(C)C)C(=O)NCC)C[C@@H]2c3cccc4[nH]cc(c34)C[C@H]21 [cabergoline]
cornea neuron regeneration compared to the blank control group: no neuron regeneration
